{"source": "patent US10772903B2", "about": "“Targeting fungi in combination with cancer therapy” (Cedars-Sinai Medical Center, priority 2016, dated 2020)", "key": {"E0771 mammary tumors": {"system": "E0771 mammary tumors", "experiment": "Orthotopic E0771 mammary tumors, tumor growth after localized irradiation with or without antibiotics/antifungals", "assay_type": "in vivo, mice", "settings": "for tumor response to RT: agent for one week prior to localized kV irradiation (16 Gy), FIG. 26, 27A", "protocol": "Orthotopic E0771 mammary tumors were grown to a median diameter of 1.0 cm and mice were then started with either antibiotics (Abx) or antifungals (AF) for one week prior to being treated with localized kV irradiation (16 Gy). Total tumor burden/animal assessed every 3 days until endpoint. […] Antibiotics (Abx) were ampicillin, imipenem, cilastin and vancomycin. Fluconazole was the antifungals (AF) used for these experiments. Significance was determined by two-way ANOVA. Kaplan-Meier survival curves are also shown with significance determined by the Log-Rank test (FIG. 26G, FIG. 26H). One of five experiments is shown. […] For all figures significance is shown as *p<0.05, **p<0.01, ***p<0.001.\nOrthotopic E0771 mammary tumors were grown as described above and then treated with either the antifungal (5-fluorocytosine) one week prior to treatment with localized kV irradiation (16 Gy) (n=8 per group, one of two repeats shown) (FIG. 27A).\nFor experiments assessing antifungal treatment and the efficacy of radiation therapy (FIGS. 2 and 13), mice bearing syngeneic murine tumors (derived from the E0771 cell line) were treated for one week with fluconazole by putting fluconazole in their drinking water. When tumors reached approximately 1 cm in size they were irradiated with 16 Gray of focal radiation from a Cesium-137 source. The tumors were then followed for tumor growth until they reached approximately 2 cm in size at which time they were harvested for analysis.\nFor experiments assessing the anti-fungal combination treatment (FIG. 14), in addition to just fluconazole the mice were treated with a cocktail of antifungals (Fluconazole, 5-Fluorocytosine and Amphotericin B) for one week prior to RT."}, "CD4+ T cells": {"system": "CD4+ T cells", "experiment": "Cytokine expression of CD4+ T cells from tumors", "assay_type": "in vivo, mice", "settings": "FIG. 4", "description": "Tumors were harvested from mice at various time points and analyzed by flow cytometry (FACS) (FIG. 22A), immunohistochemistry (IHC) (FIG. 22B) and qPCR (FIG. 22C). FIG. 22A) For FACS, tumors were enzymatically dissociated with and labeled with fluorescently tagged antibodies and then placed on a flow cytometer. FIG. 22B) For IHC, tumor fragments were fixed in formalin and embedded in paraffin. 5 micron sections were then cut and stained with various antibodies and developed with DAB prior to whole-slide scanning on the Aperio system (Leica Biosystems). FIG. 22C) qPCR was performed on flow sorted immune cells (e.g. CD4+ T cells or macrophages) and then subjected to qPCR with a panel of primers.\nTumors are harvested and evaluated at three endpoints: 1, 2, 4 and 10 days following RT. […]"}, "tumors": {"system": "tumors", "experiment": "Tumor immunohistochemistry: proliferation, cell death, vessels", "assay_type": "in vivo, mice", "settings": "FIG. 5", "experimental": "Orthotopic E0771 mammary tumors were grown to a median diameter of 1.0 cm and mice were then started with either antibiotics (Abx) or antifungals (AF) for one week prior to being treated with localized kV irradiation (16 Gy). Total tumor burden/animal assessed every 3 days until endpoint. […] Antibiotics (Abx) were ampicillin, imipenem, cilastin and vancomycin. Fluconazole was the antifungals (AF) used for these experiments. Significance was determined by two-way ANOVA. Kaplan-Meier survival curves are also shown with significance determined by the Log-Rank test (FIG. 26G, FIG. 26H). One of five experiments is shown. Tumors from mice were harvested at one week following RT and stained for bromodeoxyuridine (BrdU) and cleaved caspase 3 (CC3) to assess for proliferation and cell death respectively (FIG. 26I, FIG. 26J). Slides were scanned using the Aperio slide scanner and analyzed using the ScanScope nuclear algorithm included in the Aperio software package. Significance was determined by two-way ANOVA. For all figures significance is shown as *p<0.05, **p<0.01, ***p<0.001."}, "intratumoral leukocytes": {"system": "intratumoral leukocytes", "settings": "FIG. 3; with RT; fluconazole added to RT and antibiotics", "protocol": "Irradiated E0771 mammary tumors were harvested from mice at one week following RT. Tumors were dissociated using the tumor dissociation kit (Miltenyi Biotech) and CD45+ cells were then isolated with CD45+ MacsBeads. The resulting CD45+ cells were then stained with fluorescent antibodies and run on a flow cytometer. Total leukocytes (CD45+ Cells), CD4+ T cells, CD8+ T cells, M1 macrophages (CD11b+Ly6C+) and M1 macrophages (CD11b+F4/80′) were assessed following antibiotic (FIG. 28A-FIG. 28D) and antifungal (FIG. 28E-FIG. 28H) treatment. Antibiotics (Abx) were ampicillin, imipenem, cilastin and vancomycin. Fluconazole was the antifungal (AF) used for these experiments. n=5-7 per group and represent one of five independent experiments."}}}
{"compound": "Nc1nc(=O)[nH]cc1F", "note": "[5-fluorocytosine]", "values": [{"measurement": "tumor response to RT", "setting": "E0771 mammary tumors", "value": "similarly enhance the efficacy of RT"}]}
{"compound": "OC(Cn1cncn1)(Cn1cncn1)c1ccc(F)cc1F", "note": "[Fluconazole]", "values": [{"measurement": "efficacy of RT", "setting": "E0771 mammary tumors; FIG. 12A, RT 16 Gy", "value": "increases the efficacy of RT"}, {"measurement": "tumor response to RT", "setting": "E0771 mammary tumors", "value": "enhance"}, {"measurement": "IFN-γ expression by CD4+ T cells", "setting": "CD4+ T cells", "value": "more"}, {"measurement": "IL-4 expression by CD4+ T cells", "setting": "CD4+ T cells", "value": "less"}, {"measurement": "tumor apoptosis", "setting": "tumors", "value": "opposite"}, {"measurement": "tumor cell division", "setting": "tumors", "value": "opposite"}, {"measurement": "CD4+ T cells", "setting": "intratumoral leukocytes", "value": "reduces the increase in CD4+ T cell"}, {"measurement": "CD8+ T cells", "setting": "intratumoral leukocytes", "value": "prevents the reduction of CD8+ T cells"}]}
